From patent publication US9340537B2, “Benzamide derivatives for inhibiting the activity of ABL1, ABL2 and BCR-ABL1” (NOVATIS AG, priority 2012, dated 2016)

Key:
ABL1 (64-515) [1] = target: T1, ABL1 (64-515) (Homo sapiens (Human), UniProt P00519); assay: Radio ABL1 (64-515) radiometric filter-binding kinase assay; type: biochemical; details: 20 μM ATP
Experimental: Pre-incubation of enzyme with compounds (when stated) was performed by exposing the enzyme to compounds prior to addition of the substrate mixture (ATP and/or peptide substrate). […] Filter-plates were washed 3× with 0.5% H3PO4, followed by addition of 30 μL scintillation cocktail (Microscint, Perkin Elmer) per well and then analysed in a TopCount NXT scintillation counter (Perkin Elmer). Results were expressed as IC50 values.

Ba/F3-BCR-ABL1-WT cells = assay: Proliferation assay Ba/F3-BCR-ABL1-WT cells; type: cell-based, murine; details: Mus musculus; 48 hours, Britelite luminescence; read-out: Ba/F3-BCR-ABL1-WT IC50
Text: (§1) The murine bone marrow-derived cell line Ba/F3 was used to generate the appropriate cell line models. […] These cells are referred to as Ba/F3-WT.
(§2) To generate Ba/F3 cells that depend on BCR-ABL1 expression for growth and survival, Ba/F3 cells were engineered to express BCR-ABL1 using retroviral transduction with a MSCV based retroviral vector containing a p210 BCR-ABL1expression cassette. […] These cells are referred to as Ba/F3-BCR-ABL-WT. […] These cells are referred to as Ba/F3-BCR-ABL-T315I.
(§3) Ba/F3-WT cells were maintained in RPMI1640 media with L-glutamine, HEPES (Lonza), 10% FBS (Gibco) and 5 ng/ml IL-3 (Calbiochem). Ba/F3-BCR-ABL1-WT cells and Ba/F3-BCR-ABL1-T315I cells were maintained in RPMI1640 media with L-glutamine, HEPES (Lonza) and 10% FBS (Gibco).
(§4) For each cell line, the cell density was adjusted to 50 000 cells/mL and 50 μL (2500 cells) added per well of a 384-well assay plate.
(§5) Test compounds were resuspended in DMSO at a concentration of 10 mM. A serial three-fold dilution of each compound with DMSO was performed in 384-well plates using the Janus Liquid Dispenser (PerkinElmer). Compound was delivered to the assay plates containing 2500 cells in a 50 μL volume via Acoustic delivery from an ATS-100 (EDC).
(§6) Cells were incubated at 37° C. in a humidified environment with 5% carbon dioxide for 48 hours. Britelite plus solution (Perkin Elmer) was prepared according to the manufacturer's instructions and 25 μL added to each well of the assay plate. […] The degree of luminescence correlates with the number of cells in each well. The effect of each inhibitor concentration can therefore be calculated and IC50 values generated.

[2] = test system: Ba/F3-BCR-ABL1-T315I cells; assay: Proliferation assay Ba/F3-BCR-ABL1-T315I cells; type: cell-based, murine; details: Mus musculus; 48 hours, Britelite luminescence; read-out: Ba/F3-BCR-ABL1-T315I IC50
Text: as §1, §2, §3, §4, §5, §6

ABL1 (64-515) [3] = target: T1, ABL1 (64-515); assay: Caliper ABL1 (64-515) microfluidic mobility shift kinase assay; details: read-out: Caliper ABL1 (64-515) IC50
BCR-ABL1+KCL-22 cells = assay: Acquired resistance in BCR-ABL1+KCL-22 cells in vitro; type: cell-based; details: single agent, cells treated every 3-4 days

T1 sequence (P00519 64-515): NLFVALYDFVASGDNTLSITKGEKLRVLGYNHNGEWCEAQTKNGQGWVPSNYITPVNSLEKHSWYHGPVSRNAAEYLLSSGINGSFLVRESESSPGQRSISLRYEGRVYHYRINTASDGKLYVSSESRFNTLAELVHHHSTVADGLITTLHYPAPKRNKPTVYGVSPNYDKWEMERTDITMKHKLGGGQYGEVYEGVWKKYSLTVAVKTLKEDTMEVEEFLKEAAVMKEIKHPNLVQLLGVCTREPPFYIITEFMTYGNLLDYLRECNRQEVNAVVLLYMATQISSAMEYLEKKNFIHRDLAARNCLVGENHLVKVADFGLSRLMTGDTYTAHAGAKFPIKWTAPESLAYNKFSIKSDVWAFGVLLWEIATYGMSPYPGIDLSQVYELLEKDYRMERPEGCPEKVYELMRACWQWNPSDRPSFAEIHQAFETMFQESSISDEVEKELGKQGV

SMILES | IC50 (ABL1 (64-515) [1]) [nM] | IC50 (Ba/F3-BCR-ABL1-WT cells) [nM] | IC50 [2] [nM] | IC50 (ABL1 (64-515) [3]) [nM] | time until acquired resistance (BCR-ABL1+KCL-22 cells) [days]
N#Cc1ccc(-c2cc(C(=O)Nc3ccc(OC(F)(F)F)cc3)cnc2N2CC[C@@H](O)C2)[nH]1 [Example 30, (R)-5-(5-Cyano-1H-pyrrol-2-yl)-6-(3-hydroxypyrrolidin-1-yl)-N-(4-(trifluoromethoxy)phenyl)nicotinamide] | 6 | 1.1 | 22 | 0.7 | –
N#Cc1ccc(-c2cc(C(=O)Nc3ccc(OC(F)(F)Cl)cc3)cnc2N2CC[C@@H](O)C2)[nH]1 [Example 45, (R)—N-(4-(Chlorodifluoromethoxy)phenyl)-5-(5-cyano-1H-pyrrol-2-yl)-6-(3-hydroxypyrrolidin-1-yl)nicotinamide] | 4 | 0.6 | 13 | 0.7 | –
O=C(Nc1ccc(OC(F)(F)Cl)cc1)c1cnc(N2CCCC3(CCN3)C2)c(-c2ccn[nH]2)c1 (centres unmarked) [Example 61, N-(4-(Chlorodifluoromethoxy)phenyl)-5-(1H-pyrazol-5-yl)-6-(1,6-diazaspiro[3.5]nonan-6-yl)nicotinamide] | 3 | 49.3 | 1040 | 4.5 | –
CC1(O)CN(c2ncc(C(=O)Nc3ccc(OC(F)(F)F)cc3)cc2-c2ncc[nH]2)C1 [Example 69, 6-(3-Hydroxy-3-methylazetidin-1-yl)-5-(1H-imidazol-2-yl)-N-(4-(trifluoromethoxy)phenyl)nicotinamide] | 0.2 | 24.3 | 395 | 0.2 | –
Cc1cn(-c2cc(NC(=O)c3ccc(C)c(Nc4nccc(-c5cccnc5)n4)c3)cc(C(F)(F)F)c2)cn1 [nilotinib] | – | – | – | – | 18 to 21
